Consider seven molecules from paper PMC5615050 (Scientific Reports, 2017).

“And” between values parts separate entries of the source, which are not always exact repeats. Equal values may be shown once. Read-outs that look alike come from different tables or passages of the source.

Data set [1] deals with Wild type H1N1 NA (Influenza A virus, UniProt P03470). Description: biochemical.
Data set [2] deals with Bac-NA^WT H1N1 (Influenza A virus, UniProt P03470). Description: biochemical.
For data set [3], the target named is Wild type H5N1 NA (Influenza A virus, UniProt Q6DPL2). Put plainly: biochemical. The format is biochemical.
Wild type H5N1 NA, sequence (Q6DPL2 whole entry, looked up): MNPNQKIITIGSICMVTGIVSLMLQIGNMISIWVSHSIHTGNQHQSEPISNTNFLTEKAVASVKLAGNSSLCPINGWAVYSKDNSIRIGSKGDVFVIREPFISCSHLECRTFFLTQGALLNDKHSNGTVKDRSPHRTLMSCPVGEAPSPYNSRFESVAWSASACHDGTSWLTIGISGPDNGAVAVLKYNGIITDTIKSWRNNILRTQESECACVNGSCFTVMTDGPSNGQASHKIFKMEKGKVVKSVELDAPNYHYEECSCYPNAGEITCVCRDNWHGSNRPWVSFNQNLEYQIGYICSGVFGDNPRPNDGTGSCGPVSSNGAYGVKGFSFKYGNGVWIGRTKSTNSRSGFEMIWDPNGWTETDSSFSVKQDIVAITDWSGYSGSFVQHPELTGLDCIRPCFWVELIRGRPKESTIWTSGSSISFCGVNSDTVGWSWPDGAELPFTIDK
In data set [4] the test system is Influenza A virus (A/WSN/33) H1N1. Description: microbe, parasite or virus in culture. The conditions noted are these: for IC50: read-out: IC50 H1N1 (concentration to reduce the CPE of the virus by 50%). The format is cell-based.
Data set [5] relates to NA. The settings on record: cited from earlier work.
Data set [6] is described as follows: in vitro. The settings on record: dog.

Bac-NA^WT H1N1, sequence (P03470 whole entry, looked up): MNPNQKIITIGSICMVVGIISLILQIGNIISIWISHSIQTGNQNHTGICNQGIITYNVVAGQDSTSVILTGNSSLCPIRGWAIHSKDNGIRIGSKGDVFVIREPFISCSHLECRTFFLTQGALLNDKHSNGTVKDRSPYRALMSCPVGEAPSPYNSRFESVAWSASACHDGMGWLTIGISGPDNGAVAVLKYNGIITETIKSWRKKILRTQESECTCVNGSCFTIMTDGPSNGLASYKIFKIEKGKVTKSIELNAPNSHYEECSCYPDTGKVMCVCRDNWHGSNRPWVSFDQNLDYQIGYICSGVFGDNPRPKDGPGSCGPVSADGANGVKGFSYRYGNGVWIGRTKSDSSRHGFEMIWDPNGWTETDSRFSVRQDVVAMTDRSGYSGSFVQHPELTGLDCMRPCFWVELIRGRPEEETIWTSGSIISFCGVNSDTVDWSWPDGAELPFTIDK
Wild type H1N1 NA, sequence (P03470 whole entry, looked up): as above

Consider `CC1OC(OC2CC(O)C3(CO)C4C(O)CC5(C)C(C6COC(O)C6)CCC5(O)C4CCC3(O)C2)C(O)C(O)C1O` (stereo not drawn) [BPR1P0003S0], for which the IC50 in data set [1] (NA inhibition, IC50 H1N1) worked out at 37.3 ± 13.4 µM; in data set [2], 2.18 ± 0.03 µM; in data set [3], 2.62 ± 0.96 µM.
The corresponding values for `CC12CCC(O)CC1CCC1C2CC(O)C2(C)C(C3=CC(=O)OC3)CCC12O` (stereo not drawn) [BPR1P0007S0] are 36.5 ± 5.02 µM, 1.79 ± 0.01 µM and 2.49 ± 1.43 µM.
The corresponding values for `CC12CCC(O)CC1CCC1C2CCC2(C)C(C3=CC(=O)OC3)CCC12O` (stereo not drawn) [BPR1P0008S0] are 31.4 ± 7.33 µM, 2 µM and 2.56 ± 0.2 µM.
As for `CCC(CC)O[C@@H]1C=C(C(=O)O)C[C@H](N)[C@H]1NC(C)=O` [GS4071, oseltamivir carboxylate, reference compound], the IC50 is 0.02 ± 0.0031 µM in data set [4] and […] in data set [5].
With `O=C(Nc1ccc2c(O)cc(S(=O)(=O)O)cc2c1)Nc1ccc2c(O)cc(S(=O)(=O)O)cc2c1` [NSC45174], the IC50 in data set [1] (IC50 Wild type H1N1) was < 10 µM and 5.29 µM; in data set [4] (Influenza A virus, MDCK), 36.5 µM; in data set [4], 36.5 ± 1.19 µM; in data set [3], 16.7 ± 1.67 µM; in data set [3] (read-out: IC50 Wild type H5N1), < 20 µM. The CC50 in data set [6] was > 100 µM.
As for `O=C(Nc1ccc2c(O)c(/N=N/c3ccc4c(O)cc(S(=O)(=O)O)cc4c3)c(S(=O)(=O)O)cc2c1)c1ccccc1` [NSC45609], the IC50 in data set [1] (IC50 Wild type H1N1) was < 10 µM and 3.67 µM; in data set [4] (Influenza A virus, MDCK), 16.5 µM; in data set [4], 16.5 ± 0.63 µM; in data set [3] it was 13 ± 0.78 µM; in data set [3] (read-out: IC50 Wild type H5N1), < 20 µM. Also, in data set [6], the CC50 is > 100 µM.
As to `Nc1ccc2c(O)c(/N=N/c3ccc4c(O)cc(S(=O)(=O)O)cc4c3)c(S(=O)(=O)O)cc2c1` [NSC162535], the IC50 in data set [1] (IC50 Wild type H1N1) was < 10 µM and 4.49 µM; in data set [4] (Influenza A virus, MDCK) it was 61.5 µM; in data set [4], 61.45 ± 0.17 µM; in data set [3], 18.7 ± 1.89 µM; in data set [3] (read-out: IC50 Wild type H5N1), < 20 µM. Besides, in data set [4], the “concentration showing consistent blue color (living cells) in CPE assay” value was ≥ 50 µM. For the same molecule, the CC50 in data set [6] is > 100 µM.
